Reference: article PMC6685790 (Nature structural & molecular biology, 2008)
Changes are numbered by the printed parent chain. One block for each molecule: values may come before it.

Columns and labels:
GlyR α1 F99L = GlyR α1 F99L (Homo sapiens, UniProt P23415, F127L); assay: Whole-cell recording of substituted GlyR in HEK cells; assay type: cell-based; conditions: same cell
GlyR α1^V60A = biological target: T1, GlyR α1^V60A (Homo sapiens, UniProt P23415, V88A); assay: as above; assay type: cell-based
T1 sequence (P23415 29-457 V88A): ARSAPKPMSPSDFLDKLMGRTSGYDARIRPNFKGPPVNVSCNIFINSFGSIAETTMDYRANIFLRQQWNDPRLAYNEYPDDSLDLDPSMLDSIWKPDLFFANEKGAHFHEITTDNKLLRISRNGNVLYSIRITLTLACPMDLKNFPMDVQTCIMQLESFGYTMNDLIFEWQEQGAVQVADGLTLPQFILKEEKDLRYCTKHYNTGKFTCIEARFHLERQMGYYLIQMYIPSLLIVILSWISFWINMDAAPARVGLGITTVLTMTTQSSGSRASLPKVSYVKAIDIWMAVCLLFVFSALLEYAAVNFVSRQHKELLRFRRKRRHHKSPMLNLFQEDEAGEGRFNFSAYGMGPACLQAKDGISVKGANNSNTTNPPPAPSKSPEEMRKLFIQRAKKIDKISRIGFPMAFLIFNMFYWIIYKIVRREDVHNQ

GlyR α1^L134A, D84A = GlyR α1^L134A, D84A (Homo sapiens, UniProt P23415, D112A/L162A); assay: as above; assay type: cell-based
GlyR α1^F100Y = GlyR α1^F100Y (Homo sapiens, UniProt P23415, F128Y); assay: as above; assay type: cell-based; conditions: same cell
GlyR α1^L117A = biological target: T2, GlyR α1^L117A (Homo sapiens, UniProt P23415, L145A); assay: as above; assay type: cell-based
T2 sequence (P23415 29-457 L145A): T1 sequence (P23415 29-457 V88A) with A60V, L117A

GlyR α1^L134A, D86A = GlyR α1^L134A, D86A (Homo sapiens, UniProt P23415, D114A/L162A); assay: as above; assay type: cell-based
[1] = test system: Zn^2+-activated GlyRs (ZAGs); assay type: cell-based, human; conditions: substituted GlyRs, n = 5; close to ECl
GlyR α1^F99A,E157A = biological target: T3, GlyR α1^F99A,E157A (Homo sapiens, UniProt P23415, E185A/F127A); assay: Whole-cell recording of substituted GlyR in HEK cells; assay type: cell-based
T3 sequence (P23415 29-457 F127A/E185A): T1 sequence (P23415 29-457 V88A) with A60V, F99A, E157A

GlyR α1^L134A, D97A = GlyR α1^L134A, D97A (Homo sapiens, UniProt P23415, D125A/L162A); assay: as above; assay type: cell-based
GlyR α1 F108Y = GlyR α1 F108Y (Homo sapiens, UniProt P23415, F136Y); assay: as above; assay type: cell-based; conditions: same cell
GlyR α1^T112A = GlyR α1^T112A (Homo sapiens, UniProt P23415, T140A); assay type: cell-based
GlyR α1^T113G = GlyR α1^T113G (Homo sapiens, UniProt P23415, T141G); assay: Whole-cell recording of substituted GlyR in HEK cells; assay type: cell-based; conditions: α1^T113G vs WT
GlyR α1^D114G = GlyR α1^D114G (Homo sapiens, UniProt P23415, D142G); assay: as above; assay type: cell-based; conditions: α1^D114G vs WT
[2] = direct activation without glycine
[3] = read-out: Zn^2+ Inhibition IC50, modulation of EC50 glycine currents

Chain of GlyR α1^L134A, D86A (P23415 29-457 D114A/L162A): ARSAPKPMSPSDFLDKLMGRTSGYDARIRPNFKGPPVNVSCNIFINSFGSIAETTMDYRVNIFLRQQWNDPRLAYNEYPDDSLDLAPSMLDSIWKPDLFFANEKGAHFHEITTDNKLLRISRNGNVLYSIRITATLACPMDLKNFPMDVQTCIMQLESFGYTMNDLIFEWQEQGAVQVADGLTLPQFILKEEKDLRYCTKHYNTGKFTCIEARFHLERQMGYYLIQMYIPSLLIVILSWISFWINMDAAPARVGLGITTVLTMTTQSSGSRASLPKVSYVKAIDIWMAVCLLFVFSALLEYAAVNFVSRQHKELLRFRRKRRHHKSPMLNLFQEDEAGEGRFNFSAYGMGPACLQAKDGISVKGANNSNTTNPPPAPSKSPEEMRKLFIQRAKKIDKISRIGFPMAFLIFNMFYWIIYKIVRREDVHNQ
Chain of GlyR α1^L134A, D84A (P23415 29-457 D112A/L162A): as the sequence (P23415 29-457 D114A/L162A) above, with D84A, A86D counted along it
Chain of GlyR α1 F108Y (P23415 29-457 F136Y): as the sequence (P23415 29-457 D114A/L162A) above, with A86D, F108Y, A134L counted along it
Chain of GlyR α1^L134A, D97A (P23415 29-457 D125A/L162A): as the sequence (P23415 29-457 D114A/L162A) above, with A86D, D97A counted along it
Chain of GlyR α1^F100Y (P23415 29-457 F128Y): as the sequence (P23415 29-457 D114A/L162A) above, with A86D, F100Y, A134L counted along it
Chain of GlyR α1^T112A (P23415 29-457 T140A): as the sequence (P23415 29-457 D114A/L162A) above, with A86D, T112A, A134L counted along it
Chain of GlyR α1 F99L (P23415 29-457 F127L): as the sequence (P23415 29-457 D114A/L162A) above, with A86D, F99L, A134L counted along it
Chain of GlyR α1^D114G (P23415 29-457 D142G): as the sequence (P23415 29-457 D114A/L162A) above, with A86D, D114G, A134L counted along it
Chain of GlyR α1^T113G (P23415 29-457 T141G): as the sequence (P23415 29-457 D114A/L162A) above, with A86D, T113G, A134L counted along it

Maximal Zn^2+ (1 mM)-activated current normalised to glycine Imax (10 mM) (GlyR α1 F99L): < 2 % Gly Imax | Zn^2+ Activation EC50 (GlyR α1^V60A; [2]): None | IC50 (GlyR α1^V60A; [3]): 10.1 ± 1.26 µM | Zn^2+ activation (normalised to Gly Imax) (GlyR α1^L134A, D84A; D84A): 5 ± 1% | Increase of Zn^2+ activation EC50 relative to α1^L134A (GlyR α1^L134A, D84A; D84A vs α1^L134A): 120 fold | Maximal Zn^2+ (1 mM)-activated current normalised to glycine Imax (10 mM) (GlyR α1^F100Y): < 2 % Gly Imax | Zn^2+ Activation EC50 (GlyR α1^L117A; [2]): None | IC50 (GlyR α1^L117A; [3]): 13.3 ± 3.3 µM | Zn^2+ activation (normalised to Gly Imax) (GlyR α1^L134A, D86A; D86A): 2.4 ± 1.2% | Increase of Zn^2+ activation EC50 relative to α1^L134A (GlyR α1^L134A, D86A; D86A vs α1^L134A): 15 fold | Decrease in sensitivity to Zn^2+ activation (GlyR α1^F99A,E157A; E157A on α1^F99A background vs α1^F99A): 3 fold | Zn^2+ sensitivity compared with α1^F99A (GlyR α1^F99A,E157A; α1^F99A,E157A, Zn^2+ activation): identical | Zn^2+ activation (GlyR α1^L134A, D97A): no detectable activation | Maximal Zn^2+ (1 mM)-activated current normalised to glycine Imax (10 mM) (GlyR α1 F108Y): < 2 % Gly Imax | Zn^2+ activation (GlyR α1^T112A): highly-sensitive and efficacious ZAG
SMILES: [Zn+2] [Zn^2+]
Reversal potential of Zn^2+-activated currents [1]: 0.4 ± 1.4 mV

Glycine Imax (GlyR α1^V60A): 6.5 ± 1.3 nA | Glycine nH (GlyR α1^V60A; Hill slope): 3.5 ± 0.8 | Glycine Imax (GlyR α1^L117A): 4.4 ± 0.7 nA | Glycine nH (GlyR α1^L117A; Hill slope): 1.67 ± 0.1 | Increase in glycine sensitivity compared to WT (GlyR α1^T113G): 3 fold | Increase in glycine sensitivity compared to WT (GlyR α1^D114G): 3 fold | Activation by glycine (GlyR α1^F99A,E157A; α1^F99A,E157A, up to 10 mM glycine): insensitive
SMILES: NCC(=O)O [Glycine, glycine]
